Patent publication US8273775B2, “Non-steroidal brassinosteroid mimetic” (priority 2006, dated 2012)

Test system: gene expression in Col-0 seedling shoots
Assay: Microarray analysis (ATH1 Affymetrix) after BL or abrasin treatment
Format: in vivo, Arabidopsis
Settings: 120 min
Protocol: FIG. 14: Clustering of gene expression profiles by QT-clust analysis. Clusters illustrating the major patterns of the data sets. Points: BIK-30: 30 μM abrasin 30 min; BL-30: 1 μM brassinolide 30 min; DMSO-30: control DMSO 30 min; BIK-120: 30 μM abrasin 120 min; BL-120: 1 μM brassinolide 120 min; DMSO-120: control DMSO 120 min.
Col-0 seeds were germinated vertically on ½ MS medium for 7 days under 16 h light/8 h dark cycles. The seedlings were overlaid with liquid ½ MS medium containing 1 μM brassinolide (BL, Fuji Chemical Industries, Ltd., Toyama, Japan), 30 μM abrasin (BIK, ChemBridge Corporation) and DMSO and treated for 30 and 120 min. The shoot parts were collected for RNA isolation. All sampling points were performed in three independent experiments. RNA was extracted using RNeasy kit (Qiagene). […] total RNA per array was used to hybridise the ATH1 Affymetrix Arabidopsis arrays according to standard procedure. The overrepresentation analyses were performed using BiNGO software (Maere et al., 2005).
We performed a microarray analysis using the Arabidopsis whole genome chip (Affymetix) to determine whether abrasin activated the expression of BR-inducible genes at transcriptional level. Wild-type Col-0 seedlings were exposed to 1 μM BL, 30 μM ABRASIN and DMSO (mock-treatment) for two time points (30 min and 120 min) and the shoot parts were collected for RNA isolation. The analysis of the variance of the normalized gene expression data took in account the variability parameters affecting the expression level: type of hormone treatment, duration of treatment and the interaction between these two.

## CC(C)[C@H](C)[C@@H](O)[C@H](O)[C@@H](C)[C@H]1CC[C@H]2[C@@H]3COC(=O)[C@H]4C[C@H](O)[C@H](O)C[C@]4(C)[C@H]3CC[C@]12C [BL, brassinolide, reference compound]
  Fold-change AT4G16780 homeobox-leucine zipper protein 4 (HAT4)/HD-ZIP protein: 0.51
  Fold-change AT4G17250 expressed protein: 1.82
  Fold-change AT4G17460 homeobox-leucine zipper protein 1 (HAT1)/HD-ZIP protein 1: 0.19
  Fold-change AT4G21510 F-box family protein: 2.09
  Fold-change AT4G23030 MATE efflux protein-related: 2.20
  Fold-change AT4G23070 rhomboid family protein: 2.03
  Fold-change AT4G23810 WRKY family transcription factor: 0.55
  Fold-change AT4G24160 hydrolase, alpha/beta fold family protein: 1.14
  Fold-change AT4G25620 hydroxyproline-rich glycoprotein family protein: 0.86
  Fold-change AT4G25780 pathogenesis-related protein: 0.26
  Fold-change AT4G27970 C4-dicarboxylate transporter/malic acid transport family protein: 1.28
  Fold-change AT4G28240 wound-responsive protein-related: 0.41
  Fold-change AT4G28490 leucine-rich repeat transmembrane protein kinase, putative: 0.78
  Fold-change AT4G28703 expressed protein: 0.89
  Fold-change AT4G28780 GDSL-motif lipase/hydrolase family protein: 2.29
  Fold-change AT4G29070 expressed protein: 0.74
  Fold-change AT4G30080 transcriptional factor B3 family protein: 0.49
  Fold-change AT4G31020 expressed protein: 0.67
  Fold-change AT4G32280 auxin-responsive AUX/IAA family protein (IAA29): 0.22
  Fold-change AT4G33050 calmodulin-binding family protein: 0.57
  Fold-change AT4G33700 CBS domain-containing protein: 0.51
  Fold-change AT4G34610 homeodomain-containing protein: 0.37
  Fold-change AT4G36110 auxin-responsive protein: 7.86
  Fold-change AT4G36780 brassinosteroid signalling positive regulator-related: 0.09
  Fold-change AT4G37240 expressed protein: 2.33
  Fold-change AT4G37290 expressed protein: 0.40
  Fold-change AT4G37590 phototropic-responsive NPH3 family protein: 0.53
  Fold-change AT4G38840 auxin-responsive protein (SAUR14): 2.53
  Fold-change AT4G38850 auxin-responsive protein (SAUR-AC1): 3.03
  Fold-change AT4G38860 auxin-responsive protein (SAUR16): 3.40
  Fold-change AT4G39400 brassinosteroid insensitive 1 (BRI1): 0.57
  Fold-change AT5G02020 expressed protein: 0.96
  Fold-change AT5G05690 cytochrome P450 90A1 (CYP90A1) (CYP90) (CPD): 0.41
  Fold-change AT5G07690 myb family transcription factor (MYB29): 0.40
  Fold-change AT5G08130 basic helix-loop-helix (bHLH) family protein (BIM2): 0.42
  Fold-change AT5G12050 expressed protein: 0.34
  Fold-change AT5G13180 no apical meristem (NAM) family protein: 0.50
  Fold-change AT5G13740 sugar transporter family protein: 0.36
  Fold-change AT5G14730 expressed protein: 0.55
  Fold-change AT5G16200 50S ribosomal protein-related: 0.20
  Fold-change AT5G16980 NADP-dependent oxidoreductase: 1.26
  Fold-change AT5G18750 DNAJ heat shock N-terminal domain-containing protein: 0.56
  Fold-change AT5G19200 short-chain dehydrogenase/reductase (SDR) family protein: 2.47
  Fold-change AT5G19340 expressed protein: 0.39
  Fold-change AT5G24030 C4-dicarboxylate transporter/malic acid transport family protein: 1.90
  Fold-change AT5G24660 expressed protein: 2.26
  Fold-change AT5G25240 expressed protein: 3.69
  Fold-change AT5G25930 leucine-rich repeat family protein: 0.63
  Fold-change AT5G27350 sugar-porter family protein 1 (SFP1): 2.04
  Fold-change AT5G27670 histone H2A: 0.50
  Fold-change AT5G38310 expressed protein: 0.93
  Fold-change AT5G38990; AT5G39000 [AT5G38990, protein kinase family protein: 0.74
  Fold-change AT5G39050 transferase family protein: 0.62
  Fold-change AT5G39610 no apical meristem (NAM) family protein: 0.22
  Fold-change AT5G39970 expressed protein: 0.99
  Fold-change AT5G42830 transferase family protein: 0.62
  Fold-change AT5G47370 homeobox-leucine zipper protein 2 (HAT2): 0.87
  Fold-change AT5G48070 putative xyloglucan endotransglycosylase/hydrolase: 1.24
  Fold-change AT5G48540 33 kDa secretory protein-related: 0.55
  Fold-change AT5G51550 phosphate-responsive 1 family protein: 0.37
  Fold-change AT5G54490 calcium-binding EF-hand protein, putative: 1.75
  Fold-change AT5G54860 integral membrane transporter family protein: 0.82
  Fold-change AT5G55970 zinc finger (C3HC4-type RING finger) family protein: 1.82
  Fold-change AT5G56980 expressed protein: 0.20
  Fold-change AT5G57190 phosphatidylserine decarboxylase: 0.60
  Fold-change AT5G57780 expressed protein: 0.12
  Fold-change AT5G59080 expressed protein: 0.53
  Fold-change AT5G60200 Dof-type zinc finger domain-containing protein: 1.67
  Fold-change AT5G60270 lectin protein kinase family protein: 1.82
  Fold-change AT5G60630 expressed protein: 1.15
  Fold-change AT5G61600 encodes a member of the ERF (ethylene response factor): 2.06
  Fold-change AT5G62360 invertase/pectin methylesterase inhibitor family protein: 0.45
  Fold-change AT5G65310 homeobox-leucine zipper protein 5 (HB-5)/HD-ZIP transcription factor 5: 0.27
  Fold-change AT5G66420 expressed protein: 0.43
  Fold-change AT5G66590 allergen V5/Tpx-1-related family protein: 0.58
  Fold-change AT5G67450 zinc finger (C2H2 type) protein 1 (AZF1): 0.89
245479_at, Cluster 6
  Fold-change of gene AT4G16140 (proline-rich family protein): 0.75
245543_at, Cluster 7
  Fold-change of gene AT4G15260 (UDP-glucoronosyl/UDP-glucosyl transferase family protein): 0.67
245885_at, Cluster 5
  Fold-change of gene AT5G09440 (phosphate-responsive protein, putative): 0.13
246389_at, Cluster 10
  Fold-change of gene AT1G77380 (amino acid carrier): 0.40
246516_at, Cluster 5
  Fold-change of gene AT5G15740 (expressed protein): 0.69
247177_at, Cluster 5
  Fold-change of gene AT5G65300 (expressed protein): 0.36
247205_at, Cluster 10
  Fold-change of gene AT5G64890 (expressed protein): 0.85
247351_at, Cluster 9
  Fold-change of gene AT5G63790 (no apical meristem (NAM) family protein): 0.27
247444_at, Cluster 7
  Fold-change of gene AT5G62630 (expressed protein): 1.26
247601_at, Cluster 10
  Fold-change of gene AT5G60850 (Dof-type zinc finger domain-containing protein): 1.10
247704_at, Cluster 9
  Fold-change of gene AT5G59510 (expressed protein): 0.13
247774_at, Cluster 5
  Fold-change of gene AT5G58660 (oxidoreductase. 2OG-Fe(II) oxygenase family protein): 2.85
248190_at, Cluster 5
  Fold-change of gene AT5G54120 (expressed protein): 0.94
248191_at, Cluster 5
  Fold-change of gene AT5G54130 (calcium-binding EF hand family protein): 0.88
248282_at, Cluster 6
  Fold-change of gene AT5G52900 (expressed protein): 0.50
248646_at, Cluster 9
  Fold-change of gene AT5G49100 (expressed protein): 0.38
250012_x_at, Cluster 6
  Fold-change of gene AT5G18060 (auxin-responsive protein): 0.28
250493_at, Cluster 9
  Fold-change of gene AT5G09800 (U-box domain-containing protein): 0.30
250537_at, Cluster 8
  Fold-change of gene AT5G08565 (expressed protein): 0.78
250907_at, Cluster 5
  Fold-change of gene AT5G03670 (expressed protein): 0.37
251072_at, Cluster 5
  Fold-change of gene AT5G01740 (expressed protein): 0.47
251176_at, Cluster 10
  Fold-change of gene AT3G63380 (calcium-transporting ATPase): 0.10
251342_at, Cluster 9
  Fold-change of gene AT3G60690 (auxin-responsive family protein): 0.27
252586_at, Cluster 10
  Fold-change of gene AT3G45610 (Dof-type zinc finger domain): 1.05
252646_at, Cluster 5
  Fold-change of gene AT3G44610 (protein kinase family protein): 1.03
253255_at, Cluster 6
  Fold-change of gene AT4G34760 (auxin-responsive family protein): 0.62
253281_at, Cluster 7
  Fold-change of gene AT4G34138 (UDP-glucoronosyl/UDP-glucosyl transferase family protein): 1.74
253483_at, Cluster 5
  Fold-change of gene AT4G31910 (transferase family protein): 0.78
253617_at, Cluster 5
  Fold-change of gene AT4G30410 (expressed protein): 0.45
253629_at, Cluster 5
  Fold-change of gene AT4G30450 (glycine-rich protein): 0.59
253999_at, Cluster 9
  Fold-change of gene AT4G26200 (1-aminocyclopropane-1-carboxylate synthase): 0.11
255403_at, Cluster 6
  Fold-change of gene AT4G03400 (auxin-responsive GH3 family protein): 0.48
255443_at, Cluster 7
  Fold-change of gene AT4G02700 (sulfate transporter): 1.20
255926_at, Cluster 8
  Fold-change of gene AT1G22190 (AP2 domain-containing transcription factor): 0.89
256528_at, Cluster 6
  Fold-change of gene AT1G66140 (zinc finger (C2H2 type) family protein): 0.46
256762_at, Cluster 8
  Fold-change of gene AT3G25655 (expressed protein): 0.12
256818_at, Cluster 7
  Fold-change of gene AT3G21420 (oxidoreductase, 2OG-Fe(II) oxygenase family protein): 1.29
257066_at, Cluster 5
  Fold-change of gene AT3G18280 (protease inhibitor/seed storage/lipid transfer protein): 0.92
257506_at, Cluster 6
  Fold-change of gene AT1G29440 (auxin-responsive family protein): 0.34
257746_at, Cluster 5
  Fold-change of gene AT3G29200 (chorismate mutase, chloroplast (CM1)): 0.66
259364_at, Cluster 8
  Fold-change of gene AT1G13260 (DNA-binding protein RAV1 (RAV1)): 0.67
259773_at, Cluster 6
  Fold-change of gene AT1G29500 (auxin-responsive protein): 0.39
259783_at, Cluster 6
  Fold-change of gene AT1G29510 (auxin-responsive protein): 0.36
259784_at, Cluster 6
  Fold-change of gene AT1G29450 (auxin-responsive protein): 0.37
259787_at, Cluster 6
  Fold-change of gene AT1G29460 (auxin-responsive protein): 0.28
259875_s_at, Cluster 7
  Fold-change of gene AT1G76690; AT1G76680 ([AT1G76690, 12-oxophytodienoate reductase (OPR2)): 0.89
259985_at, Cluster 8
  Fold-change of gene AT1G76620 (expressed protein): 0.37
260243_at, Cluster 10
  Fold-change of gene AT1G63720 (expressed protein): 0.17
260727_at, Cluster 8
  Fold-change of gene AT1G48100 (glycoside hydrolase family 28 protein): 1.16
261023_at, Cluster 7
  Fold-change of gene AT1G12200 (flavin-containing monooxygenase family protein): 1.40
261203_at, Cluster 6
  Fold-change of gene AT1G12845 (expressed protein): 0.47
261768_at, Cluster 6
  Fold-change of gene AT1G15550 (gibberellin 3-beta-dioxygenase): 0.52
261892_at, Cluster 9
  Fold-change of gene AT1G80840 (WRKY family transcription factor): 0.05
262040_at, Cluster 6
  Fold-change of gene AT1G80080 (leucine-rich repeat family protein): 0.39
262050_at, Cluster 8
  Fold-change of gene AT1G80130 (expressed protein): 0.36
262505_at, Cluster 10
  Fold-change of gene AT1G21680 (expressed protein): 1.29
262543_at, Cluster 6
  Fold-change of gene AT1G34245 (expressed protein): 0.67
263126_at, Cluster 7
  Fold-change of gene AT1G78460 (SOUL heme-binding family protein): 1.49
264279_s_at, Cluster 7
  Fold-change of gene AT1G78820; AT1G78830 ([AT1G78820, curculin-like (mannose-binding) lectin family protein): 0.86
265877_at, Cluster 6
  Fold-change of gene AT2G42380 (bZIP transcription factor family protein): 0.39
266124_at, Cluster 8
  Fold-change of gene AT2G45080 (cyclin family protein): 0.27
